Read-outs that look alike come from different tables or passages of the source. Marks after values point to notes of the source that are not given here.
Tests used:
HLA-A*30:02 [1] = target: T1, HLA-A*30:02 (Homo sapiens, UniProt P04439, D101N/D140H/D185E/E176R/F33S/G80R/H175R/K168Q/Q94H/R138E/R41S/V100E); assay type: binding; settings: percent relative the binding of positive control peptide […]; duplicated experiments; positive binder >40%
HLA-B*58:01 [2] = target: T2, HLA-B*58:01 (Homo sapiens, UniProt P01889, A329T/C349S/D201E/D98Y/E176V/E187L/E204Q/E69T/G107R/I218V/I90N/K202T/L105A/L119I/N104I/N87E/Q89R/Q94S/R106L/R155S/R180L/R86G/S101N/S121R/S35A/S48A/T118I/V127L/V306I/V36M/Y140S/Y91M); assay type: binding; settings: percent relative the binding of positive control peptide […]; duplicated experiments; positive binder >40%
HLA-A*30:02 [3] = target: T1, HLA-A*30:02; assay type: binding; settings: time points 0-8 h
HLA-C*07:01 [4] = target: T3, HLA-C*07:01 (Homo sapiens, UniProt P10321, K90N/S123Y); test: off-rate assay (t1/2); assay type: binding; settings: time points 0-8 h
HLA-A*30:01 = HLA-A*30:01 (Homo sapiens, UniProt P04439, D140H/D185E/E176W/F33S/G80R/H175R/K168Q/R138E/R41S); assay type: binding; settings: percent relative the binding of positive control peptide […]; duplicated experiments; positive binder >40%
HLA-A*68:01 [5] = target: T4, HLA-A*68:01 (Homo sapiens, UniProt P04439, A269V/D185E/E176V/E277Q/E87N/F33Y/G231S/I121M/I166T/I218V/L180W/L300P/L318F/N151K/P208A/P217A/Q86R/R169H/T345S); assay type: binding; settings: percent relative the binding of positive control peptide […]; duplicated experiments; positive binder >40%
HLA-A*24:02 [6] = target: T5, HLA-A*24:02 (Homo sapiens, UniProt P04439, D101N/D140Y/D185E/E176V/E190D/F33S/G103R/G107R/I119L/I121M/I306V/K335N/L105A/L180Q/L300P/N151K/N90K/Q86E/Q94H/R106L/R138H/R89G/T104I/T345S/V100E/W191G/Y123F); assay type: binding
HLA-A*68:01 [7] = target: T4, HLA-A*68:01; assay type: binding; settings: time points 0-8 h
HLA-C*07:01 [8] = target: T3, HLA-C*07:01; test: affinity assay (ED50); assay type: binding
HLA-B*07:02 = HLA-B*07:02 (Homo sapiens, UniProt P01889); assay type: binding
HLA-C*07:01 [9] = target: T3, HLA-C*07:01; assay type: binding; settings: percent relative the binding of positive control peptide […]; duplicated experiments; positive binder >40%
HLA-A*30:02 [10] = target: T1, HLA-A*30:02; assay type: binding
HLA-A*68:01 [11] = target: T4, HLA-A*68:01; assay type: binding
HLA-A*02:01 [12] = target: T6, HLA-A*02:01 (Homo sapiens, UniProt P04439, D140Y/D185E/D98H/E176V/E277Q/G131W/G231S/I119V/I121R/I166T/I218V/L300P/L318F/N151K/N90K/P208A/P217A/Q86G/Q94H/R138H/R169H/T345S); assay type: binding
HLA-A*02:01 [13] = target: T6, HLA-A*02:01; settings: wild-type epitopes marked *; cited from earlier work
HLA-A*02:01 [14] = target: T6, HLA-A*02:01; settings: cited from earlier work
HLA-A*02:01 [15] = target: T6, HLA-A*02:01; settings: percent relative the binding of a positive control peptide, cited from earlier work
HLA-A*30:02 [16] = target: T1, HLA-A*30:02; settings: wild-type epitopes marked **; cited from earlier work
HLA-A*30:02 [17] = target: T1, HLA-A*30:02; settings: percent relative the binding of a positive control peptide; wild-type epitopes marked **; cited from earlier work
HLA-A*30:02 [18] = target: T1, HLA-A*30:02; settings: wild-type epitopes marked **; cited from earlier work; remark: listed apart in the source
HLA-B*58:01 [19] = target: T2, HLA-B*58:01; assay type: binding
HLA-A*02:01 [20] = target: T6, HLA-A*02:01; assay type: binding; remark: listed apart in the source
HLA-B*58:01 [21] = target: T2, HLA-B*58:01; assay type: binding; settings: time points 0-8 h
HLA-A*02:01 [22] = target: T6, HLA-A*02:01; assay type: binding; remark: listed apart in the source
HLA-A*24:02 [23] = target: T5, HLA-A*24:02; assay type: binding; remark: listed apart in the source
HLA-A*24:02 [24] = target: T5, HLA-A*24:02; assay type: binding; remark: listed apart in the source
[25] = percent relative the binding of positive control peptide […], duplicated experiments, positive binder >40%
[26] = percent relative the binding of positive control peptide […], plate-bound monomer 0.5 µg/ml, duplicated experiments, positive binder >40%

Sequence	Bind A*30:02 (HLA-A*30:02 [1])	Bind B*58:01 (HLA-B*58:01 [2])	O-rate A*30:02 (t1/2) (HLA-A*30:02 [3])	O-rate C*07:01 (t1/2) (HLA-C*07:01 [4])	Bind A*30:01 (HLA-A*30:01)	Bind A*68:01 (HLA-A*68:01 [5])	Bind A*24:02 (HLA-A*24:02 [6]; [25])	O-rate A*68:01 (t1/2) (HLA-A*68:01 [7])	Aff C*07:01 (ED50) (HLA-C*07:01 [8])	Bind B*07:02 (HLA-B*07:02; [25])	Bind C*07:01 (HLA-C*07:01 [9])	Aff A*30:02 (ED50) (HLA-A*30:02 [10])	Aff A*68:01 (ED50) (HLA-A*68:01 [11])	Bind A*02:01 (HLA-A*02:01 [12]; [26])	Aff B*58:01 (ED50) (HLA-B*58:01 [19])	O-rate B*58:01 (t1/2) (HLA-B*58:01 [21])	also measured
FVRSSNLKF	94%	12%	1.9 h	1.4 h	0%	45%	81%	0.1 h	2E -08 M	114%	76%	8E -06 M	8e-08 M	15%	–	–	–
MLGHAGDMA [Rv0288_11–19wt]	–	–	–	–	–	–	–	–	–	–	–	–	–	–	–	–	O-rate A*02:01 (t1/2) (HLA-A*02:01 [13]): 1.4 h; Aff A*02:01 (ED50) (HLA-A*02:01 [14]; wild-type epitopes marked *): 700 nM; Bind A*02:01 (HLA-A*02:01 [15]; wild-type epitopes marked *): 67* percent
NTPAFEWYY	99%	36%	1.5 h	0.9 h	6%	69%	0%	0.2 h	8e-09 M	0%	48%	2e-08 M	1E -07 M	0%	–	–	–
AYHAMSSTH [Rv0288_68–76wt]	–	–	–	–	–	–	–	–	–	–	–	–	–	–	–	–	Aff A*30:02 (ED50) (HLA-A*30:02 [16]): 300 nM; Bind A*30:02 (HLA-A*30:02 [17]): 70** percent; O-rate A*30:02 (t1/2) (HLA-A*30:02 [18]): 1.2 h
GHAGDMAGY [Rv0288_13–21wt]	–	–	–	–	–	–	–	–	–	–	–	–	–	–	–	–	Aff A*30:02 (ED50) (HLA-A*30:02 [16]): 40 nM; Bind A*30:02 (HLA-A*30:02 [17]): 71** percent; O-rate A*30:02 (t1/2) (HLA-A*30:02 [18]): 1.3 h
SLGAEIAVE [Rv0288_27–35wt]	–	–	–	–	–	–	–	–	–	–	–	–	–	–	–	–	O-rate A*02:01 (t1/2) (HLA-A*02:01 [13]): 1.8 h; Aff A*02:01 (ED50) (HLA-A*02:01 [14]; wild-type epitopes marked *): 10000 nM; Bind A*02:01 (HLA-A*02:01 [15]; wild-type epitopes marked *): 28* percent
MAGSSAMIL	13%	55%	–	0.5 h	0%	0%	26%	–	1E -08 M	57%	94%	–	–	54%	9e-09 M	0.8 h	Aff A*02:01 (ED50) (HLA-A*02:01 [20]; […], peptide quantity for 50% binding saturation): 700 nM; O-rate A*02:01 (t1/2) (HLA-A*02:01 [22]; time points 0-8 h, time when 50% of peptide has dissociated): 0.4 h
YQSGLSIVM	123%	0%	0.4 h	0.3 h	27%	7%	–	–	7E -09 M	–	68%	8E -07 M	–	–	–	–	Aff A*02:01 (ED50) (HLA-A*02:01 [20]): 50 nM; Bind A*24:02 (HLA-A*24:02 [6]): 59; Bind B*07:02 (HLA-B*07:02): 2; Aff A*24:02 (ED50) (HLA-A*24:02 [23]): 500 nM; O-rate A*02:01 (t1/2) (HLA-A*02:01 [22]): 3.1 h; O-rate A*24:02 (t1/2) (HLA-A*24:02 [24]): 1.5 h; Bind A*02:01 (HLA-A*02:01 [12]): 142
QSLGAEIAV [Rv0288_26–34wt]	–	30%	–	–	–	–	–	–	–	–	–	–	–	–	0.0002 M	0.1 h	Aff A*02:01 (ED50) (HLA-A*02:01 [14]): 2000 nM; Bind A*02:01 (HLA-A*02:01 [15]; […]): 48* percent
SSAMILAAY	118%	90%	3.6 h	1.6 h	0%	101%	36%	1.8 h	4E -07 M	4%	41%	7E -09 M	1E -07 M	0%	2E -08 M	0.8 h	–

Reference: article PMC3608651, “A Broad Profile of Co-Dominant Epitopes Shapes the Peripheral Mycobacterium tuberculosis Specific CD8+ T-Cell Immune Response in South African Patients with Active Tuberculosis” (PLoS ONE, 2013)
